≈ marks a conversion by molar mass, not a printed value. Where a SMILES comes first, the peptide text is derived from it. [ ]: non-standard residue; d: D form. The star is where a group is joined. Dab = NCC[C@H](N)C(=O)O; Hexanoyl = CCCCCC(=O)*
Experiments:
Erythrocyte = experiment: Hemolytic activity in mouse red blood cell assessed as hemolysis incubated for 1 hr; type: toxicity, cell-based; conditions: dose 4-256 µg/ml
Bacillus subtilis = experiment: Antibacterial activity against Bacillus subtilis ATCC 23857 assessed as bacterial growth inhibition incubated for 18 hrs by broth microdilution method; type: functional
Enterococcus faecalis = experiment: Antibacterial activity against Enterococcus faecalis ATCC 29212 assessed as bacterial growth inhibition incubated for 18 hrs by broth microdilution method; type: functional
Pseudomonas aeruginosa = experiment: Antibacterial activity against Pseudomonas aeruginosa ATCC 27853 assessed as bacterial growth inhibition incubated for 18 hrs by broth microdilution method; type: functional
Staphylococcus aureus = experiment: Antibacterial activity against Staphylococcus aureus ATCC 25923 assessed as bacterial growth inhibition incubated for 18 hrs by broth microdilution method; type: functional
Klebsiella pneumoniae = experiment: Antibacterial activity against Klebsiella pneumoniae ATCC 700603 assessed as bacterial growth inhibition incubated for 18 hrs by broth microdilution method; type: functional
Escherichia coli = experiment: Antibacterial activity against Escherichia coli ATCC 25922 assessed as bacterial growth inhibition incubated for 18 hrs by broth microdilution method; type: functional
[1] = Hemolytic activity in mouse red blood cells assessed as hemolysis at 256 microg/ml incubated for 1 hr relative to control; type: toxicity, cell-based, Erythrocyte; conditions: red blood cells (erythrocytes), at 256 µg/mL, read-out: Activity

SMILES | HC10 (Erythrocyte) [µg/mL] | MIC (Bacillus subtilis) [µg/mL] | MIC (Enterococcus faecalis) [µg/mL] | MIC (Pseudomonas aeruginosa) [µg/mL] | MIC (Staphylococcus aureus) [µg/mL] | MIC (Klebsiella pneumoniae) [µg/mL] | MIC (Escherichia coli) [µg/mL] | hemolysis at 1 h, 256 µg/mL [1] [%]
CCCCCCC(=O)N[C@@H](CCN)C(=O)N[C@H](C(=O)N[C@@H](CCN)C(=O)N[C@H](Cc1ccccc1)C(=O)N[C@@H](CC(C)C)C(=O)N[C@@H](CCN)C(=O)N[C@@H](C(=O)N[C@@H](CC(C)C)C(=O)N[C@H](C(N)=O)[C@@H](C)O)C(C)C)[C@@H](C)CC | 256 | 4 (≈ 3.58 µM) | 64 (≈ 57.3 µM) | 16 (≈ 14.3 µM) | 16 (≈ 14.3 µM) | 8 (≈ 7.17 µM) | 4 (≈ 3.58 µM) | 
CCCCCC(=O)N[C@@H](CCN)C(=O)N[C@H](C(=O)N[C@@H](CCN)C(=O)N[C@H](Cc1ccccc1)C(=O)N[C@@H](CC(C)C)C(=O)N[C@@H](CCN)C(=O)N[C@@H](C(=O)N[C@@H](CC(C)C)C(=O)N[C@@H](CO)C(N)=O)C(C)C)[C@@H](C)CC (Hexanoyl-[Dab]I[Dab][dF]L[Dab][dV]LS-NH2) | 512 | 8 (≈ 7.35 µM) | 128 (≈ 118 µM) | 4 (≈ 3.68 µM) | 64 (≈ 58.8 µM) | 64 (≈ 58.8 µM) | 32 (≈ 29.4 µM) | < 5
CCCCCC(=O)N[C@@H](CCN)C(=O)N[C@H](C(=O)N[C@H]1CCNC(=O)[C@H]([C@@H](C)O)NC(=O)[C@H](CC(C)C)NC(=O)[C@@H](C(C)C)NC(=O)[C@H](CCN)NC(=O)[C@H](CC(C)C)NC(=O)[C@@H](Cc2ccccc2)NC1=O)[C@@H](C)CC | 512 | 4 (≈ 3.69 µM) | 64 (≈ 59 µM) | 64 (≈ 59 µM) | 32 (≈ 29.5 µM) | 64 (≈ 59 µM) | 16 (≈ 14.7 µM) | < 5
CN[C@H](CC(C)C)C(=O)N[C@H]1C(=O)N[C@@H](CC(N)=O)C(=O)N[C@H]2C(=O)N[C@H]3C(=O)N[C@H](C(=O)N[C@H](C(=O)O)c4cc(O)cc(O)c4-c4cc3ccc4O)[C@H](O)c3ccc(c(Cl)c3)Oc3cc2cc(c3O[C@@H]2O[C@H](CO)[C@@H](O)[C@H](O)[C@H]2O[C@H]2C[C@](C)(N)[C@H](O)[C@H](C)O2)Oc2ccc(cc2Cl)[C@H]1O [VANCOMYCIN] |  | < 1 |  | > 128 |  | > 128 | 128 (≈ 88.3 µM) | 
CCCCCC(=O)N[C@@H](CCN)C(=O)N[C@H](C(=O)N[C@@H](CCN)C(=O)N[C@H](Cc1ccccc1)C(=O)N[C@@H](CC(C)C)C(=O)N[C@@H](CCN)C(=O)N[C@@H](C(=O)N[C@@H](CC(C)C)C(=O)N[C@H](C(N)=O)[C@@H](C)CC)C(C)C)[C@@H](C)CC | 512 | 8 (≈ 7.18 µM) | 128 (≈ 115 µM) | 4 (≈ 3.59 µM) | 32 (≈ 28.7 µM) | 32 (≈ 28.7 µM) | 16 (≈ 14.4 µM) | < 5
CCCCCC(=O)N[C@@H](CCN)C(=O)N[C@H](C(=O)N[C@@H](CCN)C(=O)N[C@H](Cc1ccccc1)C(=O)N[C@@H](CC(C)C)C(=O)N[C@@H](CCN)C(=O)N[C@@H](C(=O)N[C@@H](CC(C)C)C(=O)N[C@@H](C)C(N)=O)C(C)C)[C@@H](C)CC | 512 | 8 (≈ 7.46 µM) | > 128 | 4 (≈ 3.73 µM) | 64 (≈ 59.7 µM) | 64 (≈ 59.7 µM) | 32 (≈ 29.8 µM) | < 5
CCCCCC(=O)N[C@@H](CCN)C(=O)N[C@H](C(=O)N[C@@H](CCN)C(=O)N[C@H](Cc1ccccc1)C(=O)N[C@@H](CC(C)C)C(=O)N[C@@H](CCN)C(=O)N[C@@H](C(=O)N[C@@H](CC(C)C)C(=O)N[C@@H](Cc1c[nH]c2ccccc12)C(N)=O)C(C)C)[C@@H](C)CC | 512 | 4 (≈ 3.37 µM) | 32 (≈ 26.9 µM) | 4 (≈ 3.37 µM) | 8 (≈ 6.74 µM) | 32 (≈ 26.9 µM) | 16 (≈ 13.5 µM) | < 5
C/C=C(/NC(=O)[C@H](CC(C)C)NC(=O)[C@H](NC(=O)[C@H](CCN)NC(=O)[C@H](CC(C)C)NC(=O)[C@@H](Cc1ccccc1)NC(=O)[C@H](CCN)NC(=O)[C@@H](NC(=O)[C@H](CCN)NC(=O)C[C@@H](O)CCC)[C@@H](C)CC)C(C)C)C(=O)O | 512 | 32 (≈ 29.1 µM) | > 128 | 32 (≈ 29.1 µM) | > 128 | 128 (≈ 116 µM) | 64 (≈ 58.1 µM) | 
CCCCCCCCCCCCC(=O)N[C@@H](CCN)C(=O)N[C@H](C(=O)N[C@@H](CCN)C(=O)N[C@H](Cc1ccccc1)C(=O)N[C@@H](CC(C)C)C(=O)N[C@@H](CCN)C(=O)N[C@@H](C(=O)N[C@@H](CC(C)C)C(=O)N[C@H](C(N)=O)[C@@H](C)O)C(C)C)[C@@H](C)CC | 8 | 16 (≈ 13.3 µM) | 8 (≈ 6.66 µM) | 16 (≈ 13.3 µM) | 32 (≈ 26.7 µM) | 16 (≈ 13.3 µM) | 8 (≈ 6.66 µM) | 
CCCCCC(=O)N[C@@H](CCN)C(=O)N[C@H](C(=O)N[C@@H](CCN)C(=O)N[C@H](Cc1ccccc1)C(=O)N[C@@H](CC(C)C)C(=O)N[C@@H](CCN)C(=O)N[C@@H](C(=O)N[C@@H](CC(C)C)C(=O)N[C@@H](CCCCN)C(N)=O)C(C)C)[C@@H](C)CC | 512 | 8 (≈ 7.08 µM) | 128 (≈ 113 µM) | 2 (≈ 1.77 µM) | 64 (≈ 56.7 µM) | 32 (≈ 28.3 µM) | 64 (≈ 56.7 µM) | < 5
